pIC50: −log10 of the molar value.
Tests used:
Format in all cases: biochemical
PIP4K2B = target: T1, PIP4K2B (Homo sapiens, UniProt P78356); assay: Trans-FI P kinase assay PIP4K2B (Table 4); settings: compounds listed under IC50 bins; read-out: Trans-FI P kinase assays: PIP4K2B IC50
T1 construct: made in house; host or cells: E. coli
T1 sequence (P78356 1-416): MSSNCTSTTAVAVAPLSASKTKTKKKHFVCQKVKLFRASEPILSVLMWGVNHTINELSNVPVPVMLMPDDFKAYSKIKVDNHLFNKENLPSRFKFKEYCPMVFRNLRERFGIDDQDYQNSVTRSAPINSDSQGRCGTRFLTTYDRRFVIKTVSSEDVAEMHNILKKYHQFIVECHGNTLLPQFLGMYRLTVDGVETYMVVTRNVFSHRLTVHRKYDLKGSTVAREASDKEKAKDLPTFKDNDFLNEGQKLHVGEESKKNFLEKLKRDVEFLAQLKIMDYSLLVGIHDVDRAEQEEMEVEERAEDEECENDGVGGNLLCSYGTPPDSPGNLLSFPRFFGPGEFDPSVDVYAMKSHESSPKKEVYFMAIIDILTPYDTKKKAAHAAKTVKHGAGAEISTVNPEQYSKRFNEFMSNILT
Method in brief: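 Transcreener FI detection (Ex 584/Em 623) of GDP, converted via calibration curve, gives IC50 from residual activity versus log concentration (highest 4.8 μM). Reaction: 80 μM PI5P plus DOPE carrier, 100 μM GTP, 5 nM GST-tagged enzyme, pH 7.3 HEPES with MgCl2 and 5% DMSO, 2 h after 1 h enzyme-compound preincubation at 27° C.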

PIP4K2A [1] = target: T2, PIP4K2A (Homo sapiens, UniProt P48426); assay: ADP-glo kinase assay PIP4K 2A (Table 3); design: made in house; host or cells: E. coli; settings: compounds listed under IC50 bins
T2 sequence (P48426 1-406): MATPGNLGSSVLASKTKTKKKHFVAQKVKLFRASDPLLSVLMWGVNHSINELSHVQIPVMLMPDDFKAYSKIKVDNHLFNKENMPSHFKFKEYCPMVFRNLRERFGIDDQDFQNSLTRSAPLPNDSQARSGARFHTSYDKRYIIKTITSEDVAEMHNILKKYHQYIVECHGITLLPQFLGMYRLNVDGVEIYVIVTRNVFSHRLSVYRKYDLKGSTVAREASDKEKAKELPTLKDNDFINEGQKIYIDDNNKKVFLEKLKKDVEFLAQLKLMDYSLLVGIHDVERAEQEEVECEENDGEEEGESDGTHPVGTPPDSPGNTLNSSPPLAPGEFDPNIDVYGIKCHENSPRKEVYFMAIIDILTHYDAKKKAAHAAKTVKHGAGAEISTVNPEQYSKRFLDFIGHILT
Method in brief: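 Full-length PIP4K2A (4 nM in the mix) with 100 μM PI(5)P diC8 pre-incubated 15 min with compound in MOPS pH 7.2, 25 mM MgCl2; ATP added (60 μM solution), 1 h at RT. ADP formed read by ADP-Glo luminescence; 10-point curves versus DMSO controls fitted to IC50.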

PIP4K2A [2] = target: T2, PIP4K2A; assay: Kinase Assay PIP4K2 A (Table 2); design: 4 nM PIP4K2A (full length protein, SignalChem); purchased SignalChem; settings: compounds listed under IC50 bins
Method in brief: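 Full-length PIP4K2A (4 nM in the added mix, with 100 μM PI(5)P diC8) pre-incubated 15 min at RT with compounds (10-point, 3-fold series) in 20 mM MOPS pH 7.2, 25 mM MgCl2, 0.005% Tween 20. ATP added from a 60 μM solution, 1 h at RT; ADP-Glo luminescence, IC50 fitted from % inhibition versus DMSO.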

Row | SMILES | pIC50 (PIP4K2B) | pIC50 (PIP4K2A [1]) | pIC50 (PIP4K2A [2])
1 | O=C1CCCN1c1ccc(-c2ccc(Nc3cnc4c(c3)N3C(=O)CC[C@H]3CO4)nc2)cc1 [Example 84, (S)-2-((5-(4-(2-oxopyrrolidin-1-yl)phenyl)pyridin-2-yl)amino)-6,6a,7,8-tetrahydro-9H-pyrido[2,3-b]pyrrolo[1,2-d][1,4]oxazin-9-one] | 7.00 to 8.00 | 8.00 to 9.00 | 8.00 to 9.00
2 | COc1cc(Nc2cnc3c(c2)N2C(=O)CC[C@H]2CO3)ncc1-c1ccc(N2CCCC2=O)cc1 [Example 179, (S)-2-((4-methoxy-5-(4-(2-oxopyrrolidin-1-yl)phenyl)pyridin-2-yl)amino)-6,6a,7,8-tetrahydro-9H-pyrido[2,3-b]pyrrolo[1,2-d][1,4]oxazin-9-one] | 8.00 to 9.00 | 8.00 to 9.00 | ≥ 9.00
3 | CN(c1cncc(Nc2ccc(-c3ccc(N4CCCC4=O)cc3)cn2)c1)S(C)(=O)=O [Example 157, N-methyl-N-(5-((5-(4-(2-oxopyrrolidin-1-yl)phenyl)pyridin-2-yl)amino)pyridin-3-yl)methanesulfonamide] | 7.00 to 8.00 | 7.00 to 8.00 | 7.00 to 8.00
4 | CC1(C)C[C@H]2COc3ncc(Nc4ccc(-c5ccc(N6CCCC6=O)c(F)c5)cn4)cc3N2C1=O [Example 258, (S)-2-((5-(3-fluoro-4-(2-oxopyrrolidin-1-yl)phenyl)pyridin-2-yl)amino)-8,8-dimethyl-6,6a,7,8-tetrahydro-9H-pyrido[2,3-b]pyrrolo[1,2-d][1,4]oxazin-9-one] | 7.00 to 8.00 | 8.00 to 9.00 | 8.00 to 9.00
5 | CN(C)C/C=C/C(=O)NCC(=O)Nc1cccc(CN2CCN(c3cncc(Nc4ccc(-c5ccc(C(=O)N(C)C)cc5)cn4)c3)C2=O)c1 [Example 227, (E)-4-(6-((5-(3-(3-(2-(4-(dimethylamino)but-2-enamido)acetamido)benzyl)-2-oxoimidazolidin-1-yl)pyridin-3-yl)amino)pyridin-3-yl)-N,N-dimethylbenzamide] | 7.00 to 8.00 | 8.00 to 9.00 | ≥ 9.00
6 | CN(C)C(=O)c1ccc(-c2ccc(Nc3cncc(N4CCN(Cc5ccc(NC(=O)CN)cc5)C4=O)c3)nc2)cc1 [Example 228, 4-(6-((5-(3-(4-(2-aminoacetamido)benzyl)-2-oxoimidazolidin-1-yl)pyridin-3-yl)amino)pyridin-3-yl)-N,N-dimethylbenzamide] | < 6.00 | < 6.00 | < 6.00
7 | CN(C)C(=O)c1ccc(-c2ccc(Nc3cncc(NC(=O)CCc4cccc(NC(=O)C5CCNCC5)c4)c3)nc2)cc1 [Example 109, N-(3-(3-((5-((5-(4-(dimethylcarbamoyl)phenyl)pyridin-2-yl)amino)pyridin-3-yl)amino)-3-oxopropyl)phenyl)piperidine-4-carboxamide] | 7.00 to 8.00 | 8.00 to 9.00 | 8.00 to 9.00
8 | O=C1CCCN1c1ccc(-c2ccc(Nc3cnc4c(c3)N3C(=O)CC[C@H]3CO4)nc2)c(F)c1 [Example 191, (S)-2-((5-(2-fluoro-4-(2-oxopyrrolidin-1-yl)phenyl)pyridin-2-yl)amino)-6,6a,7,8-tetrahydro-9H-pyrido[2,3-b]pyrrolo[1,2-d][1,4]oxazin-9-one] | 7.00 to 8.00 | 7.00 to 8.00 | 8.00 to 9.00
9 | CN(C)C(=O)c1ccc(-c2ccc(Nc3cnc4c(c3)N(C(=O)c3ccccc3)CCO4)nc2)cc1 [Example 94, 4-(6-((1-benzoyl-2,3-dihydro-1H-pyrido[2,3-b][1,4]oxazin-7-yl)amino)pyridin-3-yl)-N,N-dimethylbenzamide] | 7.00 to 8.00 | 7.00 to 8.00 | 8.00 to 9.00
10 | CN(C)C(=O)c1ccc(-c2ccc(Nc3cnc4c(c3)OCO4)nc2)cc1 [Example 62, 4-(6-([1,3]dioxolo[4,5-b]pyridin-6-ylamino)pyridin-3-yl)-N,N-dimethylbenzamide] | < 6.00 | 6.00 to 7.00 | 6.00 to 7.00
11 | CN(C)C(=O)c1ccc(-c2ccc(Nc3cncc(NC(=O)CCc4cccc(NC(=O)CN)c4)c3)nc2)cc1 [Example 107, 4-(6-((5-(3-(3-(2-aminoacetamido)phenyl)propanamido)pyridin-3-yl)amino)pyridin-3-yl)-N,N-dimethylbenzamide] | 7.00 to 8.00 | 6.00 to 7.00 | 6.00 to 7.00
12 | CN(C)C(=O)c1ccc(-c2ccc(Nc3cnc4c(c3)NCCO4)nc2)cc1 [Example 46, 4-(6-((2,3-dihydro-1H-pyrido[2,3-b][1,4]oxazin-7-yl)amino)pyridin-3-yl)-N,N-dimethylbenzamide] | 7.00 to 8.00 | 6.00 to 7.00 | 7.00 to 8.00
13 | C[C@@H](c1ccccc1)N1CCN(c2cncc(Nc3ccc(-c4ccc(C(=O)N(C)C)cc4)cn3)c2)C1=O [Example 80, (S)—N,N-dimethyl-4-(6-((5-(2-oxo-3-(1-phenylethyl)imidazolidin-1-yl)pyridin-3-yl)amino)pyridin-3-yl)benzamide] | 7.00 to 8.00 | 7.00 to 8.00 | 7.00 to 8.00
14 | COC(=O)N1CCOc2ncc(Nc3ccc(-c4ccc(N5CCCC5=O)cc4)cn3)cc21 [Example 151, methyl 7-((5-(4-(2-oxopyrrolidin-1-yl)phenyl)pyridin-2-yl)amino)-2,3-dihydro-1H-pyrido[2,3-b][1,4]oxazine-1-carboxylate] | 7.00 to 8.00 | 8.00 to 9.00 | 8.00 to 9.00
15 | COC(=O)Nc1cncc(Nc2ccc(-c3ccc(C(=O)N(C)C)cc3)cn2)c1 [Example 120, methyl(5-((5-(4-(dimethylcarbamoyl)phenyl)pyridin-2-yl)amino)pyridin-3-yl)carbamate] | 7.00 to 8.00 | 6.00 to 7.00 | 7.00 to 8.00
16 | CN(C)C(=O)c1ccc(-c2ccc(Nc3cncc(OC(F)F)c3)nc2)cc1 [Example 49, 4-(6-((5-(difluoromethoxy)pyridin-3-yl)amino)pyridin-3-yl)-N,N-dimethylbenzamide] | < 6.00 | 6.00 to 7.00 | 6.00 to 7.00
17 | CN(C)C(=O)c1ccc(-c2ccc(Nc3cncc(NC(=O)CCc4cccc(N)c4)c3)nc2)cc1 [Example 102, 4-(6-((5-(3-(3-aminophenyl)propanamido)pyridin-3-yl)amino)pyridin-3-yl)-N,N-dimethylbenzamide] | 7.00 to 8.00 | 7.00 to 8.00 | 8.00 to 9.00
18 | O=C1CCCN1c1ccc(-c2ccc(Nc3cnc4c(c3)N(C(=O)CO)CCO4)nc2)cc1 [Example 235, 1-(4-(6-((1-(2-hydroxyacetyl)-2,3-dihydro-1H-pyrido[2,3-b][1,4]oxazin-7-yl)amino)pyridin-3-yl)phenyl)pyrrolidin-2-one] | 7.00 to 8.00 | 7.00 to 8.00 | 8.00 to 9.00
19 | CN(C)C(=O)c1ccc(-c2ccc(Nc3cnc4c(c3)N3C(=O)CC[C@H]3CO4)nc2)cc1 [Example 242, (S)-N,N-dimethyl-4-(6-((9-oxo-6a,7,8,9-tetrahydro-6H-pyrido[2,3-b]pyrrolo[1,2-d][1,4]oxazin-2-yl)amino)pyridin-3-yl)benzamide] | 7.00 to 8.00 | 8.00 to 9.00 | 8.00 to 9.00
20 | CN(C)C/C=C/C(=O)NCC(=O)Nc1ccc(CN2CCN(c3cncc(Nc4ccc(-c5ccc(C(=O)N(C)C)cc5)cn4)c3)C2=O)cc1 [Example 229, (E)-4-(6-((5-(3-(4-(2-(4-(dimethylamino)but-2-enamido)acetamido)benzyl)-2-oxoimidazolidin-1-yl)pyridin-3-yl)amino)pyridin-3-yl)-N,N-dimethylbenzamide] | < 6.00 | < 6.00 | < 6.00
21 | CN(C)C/C=C/C(=O)Nc1cccc(CCC(=O)Nc2cccc(CN3CCN(c4cncc(Nc5ccc(-c6ccc(C(=O)N(C)C)cc6)cn5)c4)C3=O)c2)c1 [Example 225, (E)-4-(6-((5-(3-(3-(3-(3-(4-(dimethylamino)but-2-enamido)phenyl)propanamido)benzyl)-2-oxoimidazolidin-1-yl)pyridin-3-yl)amino)pyridin-3-yl)-N,N-dimethylbenzamide] | 7.00 to 8.00 | 7.00 to 8.00 | 8.00 to 9.00
